Active and inactive are the calls of the source. No cut-off for these calls is given here.
How the values were obtained:
Acetylcholinesterase [1] = molecular target: T1, Acetylcholinesterase (Homo sapiens, UniProt P22303); assay: Stability of compound assessed as human serum AChE-mediated compound hydrolysis by fluorescence based analysis; type: ADME
Cholinesterase [2] = molecular target: Cholinesterase (Equus caballus, UniProt P81908); assay: Stability of compound assessed as horse serum BChE-mediated compound hydrolysis by fluorescence based analysis; type: ADME
Cholinesterase [3] = molecular target: T2, Cholinesterase (Homo sapiens, UniProt P06276); assay: Inhibition of human BChE using butyrylthiocholineiodide as substrate preincubated for 5 mins followed by substrate addition and measured immediately by Ellmans method
[4] = Neurotoxicity in mouse HT-22 cells assessed as reduction in cell viability at 50 uM; type: toxicity, cell-based; conditions: ht-22, 50 µM
Cholinesterase [5] = molecular target: T2, Cholinesterase; assay: Binding affinity to BChE in human SH-SY5Y cells at 10 uM incubated for 1 hrs by fluorescence based confocal laser scanning microscopic analysis; type: cell-based
Acetylcholinesterase [6] = molecular target: T1, Acetylcholinesterase; assay: Binding affinity to AChE (unknown origin) by fluorescence analysis
SH-SY5Y [7] = assay: Neuroprotective activity against amyloid-beta (1 to 42)-induced human SH-SY5Y cells assessed as increase in ACh level in cell lysate at 10 to 20 uM incubated for 24 hrs by ELISA; type: functional, cell-based; conditions: dose 10-20 µM
Mus musculus [8] = assay: Antialzheimer activity in APP/PS1 transgenic AD mouse model assessed as improvement in learning administered intravenously once every 2 days for 10 times and measured on day 26 by Y maze test; type: functional, organism-based; conditions: route iv, time 26.0 day
Mus musculus [9] = assay: Antialzheimer activity in APP/PS1 transgenic AD mouse model assessed as improvement in memory administered intravenously once every 2 days for 10 times followed by morris water maze training from day 21 to 25 and measured on day 26 by Morris water maze test; type: functional, organism-based; conditions: route iv, time 26.0 day
Cholinesterase [10] = molecular target: T2, Cholinesterase; assay: Binding affinity to BChE (unknown origin) in PBS assessed as Michaelis-menten constant by fluorometric method
Mus musculus [11] = assay: Antialzheimer activity in APP/PS1 transgenic AD mouse model assessed as improvement in learning administered intravenously once every 2 days for 10 times followed by morris water maze training from day 21 to 25 and measured on day 26 by Morris water maze test; type: functional, organism-based; conditions: route iv, time 26.0 day
Cholinesterase [12] = molecular target: T2, Cholinesterase; assay: Binding affinity to BChE (unknown origin) in PBS assessed as maximum emission wavelength at 710 nm by fluorescence spectra analysis
PC-12 [13] = assay: Binding affinity to BChE in rat PC-12 cells assessed as increase in fluorescence intensity incubated for 1 hrs by fluorescence based confocal laser scanning microscopic analysis; type: cell-based; conditions: dose 1-10 µM
Cholinesterase [14] = molecular target: T2, Cholinesterase; assay: Binding affinity to BChE (unknown origin) in PBS assessed as […] at 680 nm by UV/vis absorption analysis
Cholinesterase [15] = molecular target: T2, Cholinesterase; assay: Binding affinity to BChE (unknown origin) in PBS assessed as cyan coloured appearance of compound by UV/vis absorption analysis
[16] = Stability of compound in male ICR mouse brain at 100 uM, iv measured within 5 mins by fluorescence microplate reader; type: ADME, organism-based
Mus musculus [17] = assay: Antialzheimer activity in APP/PS1 transgenic AD mouse model assessed as increase in ACh level administered intravenously once every 2 days for 10 times and measured on day 30 by ELISA; type: functional, organism-based; conditions: route iv, time 30.0 day
[18] = Toxicity in APP/PS1 transgenic AD mouse model assessed as effect on body weight administered intravenously once every 2 days for 10 times and measured on day 30; conditions: in vivo, iv, 720 h, time 30 day
PC-12 [19] = assay: Binding affinity to BChE in rat PC-12 cells at 10 uM incubated for 1 hrs by fluorescence based confocal laser scanning microscopic analysis; type: cell-based
Cholinesterase [20] = molecular target: T2, Cholinesterase; assay: Binding affinity to BChE (unknown origin) assessed as enzyme mediated compound hydrolysis measured after 5 min by HPLC analysis relative to control; set-up: scale not given: the % may be the effect or the level left
[21] = Drug accumulation in brain of APP/PS1 transgenic AD-mouse model at 100 uM, iv measured after 24 hrs […] by fluorescence imaging analysis; type: ADME, organism-based; conditions: in vivo
Cholinesterase [22] = molecular target: T2, Cholinesterase; assay: Binding affinity to BChE (unknown origin) in PBS assessed as fold change in fluorescence intensity at 710 nm by fluorescence spectra analysis
[23] = Stability of compound at pH 12 measured within 3 mins by microplate reader analysis; type: physicochemical; conditions: buffer, pH 12, 0.05 h
Mus musculus [24] = assay: Antialzheimer activity in APP/PS1 transgenic AD mouse model assessed as decrease in amyloid beta (1 to 42) level administered intravenously once every 2 days for 10 times and measured on day 30 by ELISA; type: functional, organism-based; conditions: route iv, time 30.0 day
Cholinesterase [25] = molecular target: T2, Cholinesterase; assay: Stability of compound assessed as BChE(unknown origin)-mediated compound hydrolysis at 10 uM by fluorescence based analysis; type: ADME
[26] = Stability of compound in male ICR mouse brain at 100 uM, iv measured after 30 to 1440 mins by fluorescence microplate reader; type: ADME, organism-based; conditions: time 30-1440 min
[27] = Permeability of compound incubated for 18 hrs by PAMPA-BBB based UV plate spectroscopic reader analysis; type: ADME; conditions: read-out: permeability
Cholinesterase [28] = molecular target: T2, Cholinesterase; assay: Binding affinity to BChE (unknown origin) assessed as enzyme mediated compound hydrolysis measured after 1 min by HPLC analysis relative to control; set-up: scale not given: the % may be the effect or the level left
Homo sapiens [29] = species on record: Homo sapiens; assay: Binding affinity to ALP (unknown origin) by fluorescence analysis
Homo sapiens [30] = species on record: Homo sapiens; assay: Binding affinity to carboxylesterase (unknown origin) by fluorescence analysis
SH-SY5Y [31] = assay: Neuroprotective activity against amyloid-beta (1 to 42)-induced human SH-SY5Y cells assessed as increase in ACh level in culture medium at 10 to 20 uM incubated for 24 hrs by ELISA; type: functional, cell-based; conditions: dose 10-20 µM
[32] = Selectivity ratio of fluorescence intensity for binding affinity to AChE (unknown origin) in PBS to fluorescence intensity for binding affinity to BChE (unknown origin) in PBS
Mus musculus [33] = assay: Antialzheimer activity in APP/PS1 transgenic AD mouse model assessed as improvement in NC scores administered intravenously once every 2 days for 10 times and measured on day 27 by Nest construction test; type: functional, organism-based; conditions: route iv, time 27.0 day
Cholinesterase [34] = molecular target: T2, Cholinesterase; assay: Binding affinity to BChE in human LN-229 cells at 10 uM incubated for 1 hrs by fluorescence based confocal laser scanning microscopic analysis; type: cell-based
Cholinesterase [35] = molecular target: T2, Cholinesterase; assay: Binding affinity to BChE (unknown origin) in PBS assessed as red-shift in maximum absorption to 680 nm by UV/vis absorption analysis
[36] = Stability of compound in male ICR mouse plasma at 100 uM, iv measured after 30 mins by fluorescence microplate reader; type: ADME, organism-based; conditions: 0.5 h
[37] = Drug uptake in HEK293T cells transfected with BChE siRNA assessed as increase in fluorescence intensity by fluorescence based confocal laser scanning microscopic analysis; type: ADME, cell-based; conditions: human, hek-293t
SH-SY5Y [38] = assay: Neuroprotective activity against amyloid-beta (1 to 42)-induced cell death in human SH-SY5Y cells assessed as increase in cell survival at 10 to 50 uM preincubated with compound for 2 hrs followed by amyloid beta (1 to 42) addition and measured after 24 hrs by MTT assay; type: functional, cell-based; conditions: dose 10-50 µM, time 26.0 hrs
SH-SY5Y [39] = assay: Neuroprotective activity against amyloid-beta (1 to 42)-induced human SH-SY5Y cells assessed as decrease in amyloid beta (1 to 42) level in culture medium at 10 to 20 uM incubated for 24 hrs by ELISA; type: functional, cell-based; conditions: dose 10-20 µM
[40] = Drug accumulation in brain of APP/PS1 transgenic AD-mouse model at 100 uM, iv measured at 5 to 60 mins by fluorescence imaging analysis; type: ADME, organism-based; conditions: in vivo, time 5-60 min
PC-12 [41] = assay: Binding affinity to BChE in rat PC-12 cells assessed as increase in fluorescence intensity at 10 uM incubated for 24 hrs by fluorescence based confocal laser scanning microscopic analysis; type: cell-based
SH-SY5Y [42] = assay: Neuroprotective activity against amyloid-beta (1 to 42)-induced human SH-SY5Y cells assessed as decrease in amyloid beta (1 to 42) level in cell lysate at 10 to 20 uM incubated for 24 hrs by ELISA; type: functional, cell-based; conditions: dose 10-20 µM
Cholinesterase [43] = molecular target: T2, Cholinesterase; assay: Binding affinity to BChE (unknown origin) in PBS assessed as maximum initial reaction rate by fluorometric method
Homo sapiens [44] = species on record: Homo sapiens; assay: Binding affinity to lysozyme (unknown origin) by fluorescence analysis
[45] = molecular target: Cholinesterase (Mus musculus) (UniProt Q03311); assay: Binding affinity to BChE in mouse HT-22 cells at 10 uM incubated for 1 hrs by fluorescence based confocal laser scanning microscopic analysis; type: cell-based
Cholinesterase (Mus musculus), sequence (Q03311 whole entry): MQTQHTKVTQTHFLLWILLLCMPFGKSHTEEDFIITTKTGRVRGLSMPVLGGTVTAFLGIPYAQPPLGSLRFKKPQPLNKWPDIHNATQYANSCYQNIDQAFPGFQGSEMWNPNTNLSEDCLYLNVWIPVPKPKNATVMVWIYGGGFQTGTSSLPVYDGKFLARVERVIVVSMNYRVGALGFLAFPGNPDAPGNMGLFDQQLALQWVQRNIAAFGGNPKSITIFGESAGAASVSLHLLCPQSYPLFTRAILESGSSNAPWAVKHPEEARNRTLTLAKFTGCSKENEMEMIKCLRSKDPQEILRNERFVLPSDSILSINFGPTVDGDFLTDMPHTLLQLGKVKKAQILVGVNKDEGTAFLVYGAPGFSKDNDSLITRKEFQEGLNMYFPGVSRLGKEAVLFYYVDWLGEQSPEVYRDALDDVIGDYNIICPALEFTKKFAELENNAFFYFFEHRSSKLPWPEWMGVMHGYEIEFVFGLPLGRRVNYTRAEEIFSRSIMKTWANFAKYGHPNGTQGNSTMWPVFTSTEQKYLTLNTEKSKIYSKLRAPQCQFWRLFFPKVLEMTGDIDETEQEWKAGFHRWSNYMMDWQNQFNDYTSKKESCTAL

T2 sequence (P06276 whole entry): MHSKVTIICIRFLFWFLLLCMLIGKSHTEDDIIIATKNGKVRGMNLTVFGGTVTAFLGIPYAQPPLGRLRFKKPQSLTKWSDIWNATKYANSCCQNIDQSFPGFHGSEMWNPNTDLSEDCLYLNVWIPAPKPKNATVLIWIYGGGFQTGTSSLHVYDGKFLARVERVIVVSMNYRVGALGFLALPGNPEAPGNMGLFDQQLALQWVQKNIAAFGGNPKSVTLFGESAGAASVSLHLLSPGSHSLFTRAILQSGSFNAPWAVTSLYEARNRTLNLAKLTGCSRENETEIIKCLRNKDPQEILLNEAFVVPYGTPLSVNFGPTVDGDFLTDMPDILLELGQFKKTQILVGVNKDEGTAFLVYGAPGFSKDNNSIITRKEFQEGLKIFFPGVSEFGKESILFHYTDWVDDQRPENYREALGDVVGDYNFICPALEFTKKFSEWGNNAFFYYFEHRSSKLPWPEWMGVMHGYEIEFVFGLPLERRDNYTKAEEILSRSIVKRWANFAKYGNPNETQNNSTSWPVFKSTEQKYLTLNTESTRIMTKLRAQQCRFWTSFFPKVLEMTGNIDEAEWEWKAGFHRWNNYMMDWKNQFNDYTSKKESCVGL
T1 sequence (P22303 whole entry): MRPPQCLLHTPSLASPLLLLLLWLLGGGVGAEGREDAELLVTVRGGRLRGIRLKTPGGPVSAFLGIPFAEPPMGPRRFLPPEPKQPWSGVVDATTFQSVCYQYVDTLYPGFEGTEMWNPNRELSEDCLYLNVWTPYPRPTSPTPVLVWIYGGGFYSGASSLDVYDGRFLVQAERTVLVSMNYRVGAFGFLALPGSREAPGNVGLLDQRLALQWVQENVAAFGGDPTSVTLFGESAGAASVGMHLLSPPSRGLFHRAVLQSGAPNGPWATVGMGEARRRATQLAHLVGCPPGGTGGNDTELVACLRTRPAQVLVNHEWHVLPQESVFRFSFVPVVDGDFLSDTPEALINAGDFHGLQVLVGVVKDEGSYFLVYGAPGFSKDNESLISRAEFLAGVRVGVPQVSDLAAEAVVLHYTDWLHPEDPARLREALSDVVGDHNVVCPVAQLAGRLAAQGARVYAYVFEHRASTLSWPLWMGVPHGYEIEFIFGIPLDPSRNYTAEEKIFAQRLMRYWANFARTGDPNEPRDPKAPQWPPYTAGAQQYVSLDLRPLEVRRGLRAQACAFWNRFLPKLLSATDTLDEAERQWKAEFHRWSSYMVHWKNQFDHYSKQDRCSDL
Cholinesterase (Equus caballus, UniProt P81908), sequence (P81908 whole entry): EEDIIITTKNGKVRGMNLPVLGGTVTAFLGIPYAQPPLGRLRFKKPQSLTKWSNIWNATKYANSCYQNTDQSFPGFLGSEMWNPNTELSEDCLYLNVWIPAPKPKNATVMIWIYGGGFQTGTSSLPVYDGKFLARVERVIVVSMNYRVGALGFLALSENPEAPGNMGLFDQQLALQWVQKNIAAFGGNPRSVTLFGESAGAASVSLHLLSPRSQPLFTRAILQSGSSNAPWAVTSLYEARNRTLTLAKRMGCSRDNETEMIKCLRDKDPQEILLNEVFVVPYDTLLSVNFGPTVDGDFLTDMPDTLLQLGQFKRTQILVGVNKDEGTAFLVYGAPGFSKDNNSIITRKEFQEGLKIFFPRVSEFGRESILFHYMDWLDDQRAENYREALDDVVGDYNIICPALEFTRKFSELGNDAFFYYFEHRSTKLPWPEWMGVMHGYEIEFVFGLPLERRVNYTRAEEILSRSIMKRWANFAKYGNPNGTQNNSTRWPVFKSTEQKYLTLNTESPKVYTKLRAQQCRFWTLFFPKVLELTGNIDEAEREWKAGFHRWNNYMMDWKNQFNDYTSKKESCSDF

## C#CCCC[N+]1=C(/C=C/C2=C3Oc4cc(OC(C)=O)ccc4C=C3CCC2)C(C)(C)c2ccccc21.[I-]
Acetylcholinesterase [1]
  Stability: Unstable
Cholinesterase [2]
  Stability: Unstable

## CCN(CC)Cc1ccccc1CNC(=O)c1cccc(NC(=O)c2cccc(C(=O)O)c2)c1
Cholinesterase [3]
  IC50: 1.23 nM

## C#CCCC[N+]1=C(/C=C/C2=C3Oc4cc(OC(=O)C5CC5)ccc4C=C3CCC2)C(C)(C)c2ccccc21.[I-]
[4]
  Activity: Toxic
Cholinesterase [5]
  Activity: Active
Acetylcholinesterase [6]
  Activity: inactive
SH-SY5Y [7]
  Activity: inactive
Mus musculus [8]
  Activity: inactive
Mus musculus [9]
  Activity: inactive
Cholinesterase [10]
  Activity: 9.07 µM
Mus musculus [11]
  Activity: inactive
Cholinesterase [12]
  Activity: Active
PC-12 [13]
  Activity: Dose-Dependent Effect
Cholinesterase [14]
  Activity: Active
Cholinesterase [15]
  Activity: Active
[16]
  Stability: Stable
Mus musculus [17]
  Activity: inactive
[18]
  Activity: Non-Toxic
PC-12 [19]
  Activity: Active
Cholinesterase [20]
  Activity: > 90%
[21]
  Drug uptake: Not Active
Cholinesterase [3]
  IC50: > 100000 nM
Cholinesterase [22]
  fold change (FC): 21
[23]
  Stability: Unstable
Mus musculus [24]
  Activity: inactive
Cholinesterase [25]
  Stability: Stable
[26]
  Stability: Unstable
[27]
  Papp at 18 h: 5.97 ×10⁻⁶ cm/s
Cholinesterase [28]
  Activity: 50%
Homo sapiens [29]
  Activity: inactive
Homo sapiens [30]
  Activity: inactive
SH-SY5Y [31]
  Activity: inactive
[32]
  Selectivity ratio: 31.4
Mus musculus [33]
  Activity: inactive
Cholinesterase [34]
  Activity: Active
Cholinesterase [35]
  Activity: Active
[36]
  Stability: Stable
[37]
  Drug uptake: Not Active
SH-SY5Y [38]
  Activity: inactive
SH-SY5Y [39]
  Activity: inactive
[40]
  Drug uptake: Active
PC-12 [41]
  Activity: Active
SH-SY5Y [42]
  Activity: inactive
Cholinesterase [43]
  Activity: 2.08 µM/min
Homo sapiens [44]
  Activity: inactive
[45]
  Activity: Active

## CCN(CC)Cc1ccccc1CNC(=O)c1cccc(NC(=O)c2ccc(F)cc2)c1
[4]
  Activity: Non-Toxic

## Nc1c2c(nc3ccccc13)CCCC2 [TACRINE]
[4]
  Activity: Non-Toxic

From ChEMBL document CHEMBL5506010, “Butyrylcholinesterase-Activated Near-Infrared Fluorogenic Probe for In Vivo Theranostics of Alzheimer's Disease” (J Med Chem, 2024)
